One data set relates to malignant melanoma. The following applies: in vivo; cited from earlier work.
Data set [1] concerns OVCAR3 ovarian cancer cells. Description: in vitro cytotoxicity anti tumor activity. The data set is classed as cell-based. To be noted: Homo sapiens, read-out: IC50.
Data set [2] deals with GRC-1 multidrug resistant human cervical carcinoma cells. Description: modulation of VBL toxicity (colony formation), GRC-1. It is filed as cell-based. The following applies: 25 μM masoprocol, 10 days, 37° C. How it is done: Drug-sensitive KB-3-1 cells and the drug resistant subline (KB-GRC-1) were obtained from Dr. Igor Roninson (University of Illinois, College of Medicine, Chicago, Ill.). Cells were maintained in Dulbecco's modified Eagle's medium supplemented with 10% fetal bovine serum and 2 mM glutamine. The KB-GRC-1 cells were maintained in medium supplemented with 6 ng/ml colchicine.
To test the modulation of VBL toxicity by masoprocol, cells which had been seeded at 200-300 cells/dish were incubated in media containing various concentrations of VBL in the absence or presence of 25 μM masoprocol. After an incubation period of 10 days at 37° C. the cells were fixed and stained, and the number of colonies per dish were counted and expressed as a percent of the number of colonies formed in control conditions. 1.

In data set [3] the test system is benign, paramalignant and malignant growth of the skin. To be noted: in combination with ionic zinc; cited from earlier work.
Data set [4] has as its system KB-3-1 human cervical carcinoma cells. Description: initial influx of VBL, KB-3-1. The data set is classed as cell-based. To be noted: 50 μM masoprocol added concurrently with VBL, 3 to 24 seconds; FIG. 4b. How it is done:
A further test was conducted to show the effect of masoprocol on the initial influx of VBL. Cells were exposed to media containing [^3 H]VBL with and without 50 μM masoprocol. After incubation times ranging from 3 seconds to 24 seconds, the media was removed. The amount of VBL taken up by the cells was determined as described in A. The data was summarized from four replicate experiments. FIG. 4apresents the results for the GRC-1 cell line, and FIG. 4b for the KB-3-1 cell line.

The subject of data set [5] is Hs 68 Newborn Foreskin Fibroblasts. The experiment in a line: in vitro cytotoxicity, normal cells. It is filed as cell-based. To be noted: Homo sapiens, read-out: IC50.
In the next data set the test system is DLD-1 Colon cancer cells. Description: in vitro cytotoxicity anti tumor activity. It is filed as cell-based. The following applies: Homo sapiens, DLD-1, 1 h; One Hour Pulse Treatment; read-out: IC50.
Data set [6] relates to GRC-1 multidrug resistant human cervical carcinoma cells. Description: efflux of VBL, GRC-1. It is filed as cell-based. To be noted: 50 μM masoprocol. As to the method: A further test was conducted to show the effect of masoprocol on the efflux of VBL from cells. Cells were incubated with [^3 H]VBL with or without 50 μM masoprocol for 2 hours. The medium was then replaced with drug-free medium. After incubation for various times, the amount of VBL remaining in the cells was determined as described above. The data was presented in terms of the percentage of VBL remaining at various efflux times compared to VBL in cells with an efflux time of zero. In FIGS. 3a and 3b, efflux is expressed as pmol VBL. In FIGS. 3c and 3d, efflux is expressed as percentage of VBL levels at time zero.

The test system of data set [7] is multidrug resistant tumor cells. Description: effects on vincristine (VBL substituted by vincristine in Example 3). The data set is classed as cell-based. The text has this: In accordance with the invention VBL can be substituted by vincristine in Example 3.
The test system of another data set is normal cells. Description: toxicity to normal cells as opposed to cancer cells. It is filed as cell-based.
Another data set has as its system mammals. To be noted: in vivo; cited from earlier work.

Entries after “also recorded” stand apart in the source; their conditions may differ. Where two headings read alike, the source gives them in different places.

Take `C[C@H](Cc1ccc(O)c(O)c1)[C@@H](C)Cc1ccc(O)c(O)c1` [Masoprocol, meso-1,4-bis (3,4-dihydroxyphenyl)-2,3-dimethylbutane]: the “result against malignant melanoma” value in the data set with malignant melanoma is listed as “positive result”. Also, the IC50 is 258 µM in [1] (OVCAR-3, 1 h, One Hour Pulse Treatment); 35.9 µM in [1] (OVCAR-3, Continuous Drug Exposure, observation at 70 hours); 178 µM in data set [5] (Hs68, 1 h, One Hour Pulse Treatment); 18 µM in data set [5] (Hs68, Continuous Drug Exposure, observation at 70 hours); 124 µM in the data set with DLD-1 Colon cancer cells. Also, in [2], the “effect on VBL cytotoxicity / colony formation” value is reported as “increase in the cytotoxicity of VBL; also recorded: increases the cytotoxic effect of VBL”. Also, in data set [3], the “effectiveness in treatment of growth of the skin” value is on record as “effective”. Besides, the “initial VBL uptake (influx)” value in data set [4] is given as “substantial increase in initial VBL uptake; also recorded: effective modulator of initial VBL influx; also recorded: promotes the initial uptake of VBL”. The “modulation of VBL efflux” value in data set [6] is “does not modulate VBL efflux”; in data set [6] (listed as masoprocol), “does not influence the rate of efflux of VBL”. For the same compound, the “VBL levels at efflux time zero” value in [6] (2 hours, FIG. 3a) is “higher in masoprocol-treated cells”. In [6] (FIG. 3c), the “percent of VBL retained at various efflux time points” value is given as “not affected by masoprocol treatment”. Besides, in [7], the “effects on vincristine compared with VBL” value is on record as “comparative effects”. Further, the “toxicity to normal cells versus doxorubicin” value with normal cells is on record as “less toxic than doxorubicin”. In addition, the “retarding senescence or aging” value with mammals was “having efficacy in retarding senescence or aging in mammals”.

These data come from patent US5541232A, “Treatment of multidrug resistant diseases” (Chemex Pharmaceuticals, Inc., priority 1994, dated 1996).
